Source: patent publication US10774080B2, “Pyrimidine compound as JAK kinase inhibitor” (THERAVANCE BIOPHARMA R&D IP, LLC, priority 2017, dated 2020)

Tests used:
Tyk2 = molecular target: T1, Tyk2 (Homo sapiens, UniProt P29597); test: Biochemical Tyk2 kinase assay (LanthaScreen); conditions: read-out: Tyk 2 (pKi) (converted)
T1 construct: GST; purchased Life Technologies
Method: Assay 1: Biochemical JAK and Tyk2 Kinase Assays A panel of four LanthaScreen JAK biochemical assays (JAK1, 2, 3 and Tyk2) were carried in a common kinase reaction buffer (50 mM HEPES, pH 7.5, 0.01% Brij-35, 10 mM MgCl2, and 1 mM EGTA). Recombinant GST-tagged JAK enzymes and a GFP-tagged STAT1 peptide substrate were obtained from Life Technologies. Serially or discretely diluted compounds were pre-incubated with each of the four JAK enzymes and the substrate in white 384-well microplates (Corning) at ambient temperature for 1 h. ATP was subsequently added to initiate the kinase reactions in 10 μL total volume, with 1% DMSO. […] The plates were allowed to incubate at ambient temperature for 1 h before being read on the EnVision reader (Perkin Elmer). Emission ratio signals (520 nm/495 nm) were recorded and utilized to calculate the percent inhibition values based on DMSO and background controls. For dose-response analysis, percent inhibition data were plotted vs. compound concentrations, and IC50 values were determined from a 4-parameter robust fit model with the Prism software (GraphPad Software). Results were expressed as pIC50 (negative logarithm of IC50) and subsequently converted to pKi (negative logarithm of dissociation constant, Ki) using the Cheng-Prusoff equation.

[1] = Assay 9: skin tissue concentration in mice; format: in vivo; conditions: Balb/c, mouse, topical ointment 25 μl/cm^2, biopsy one hour after IL-31
Description: The JAK/STAT (janus kinase/signal transducer and activator of transcription) signaling pathway is a key element in the communication between immune cells and is mainly activated through cytokine receptors. Binding of cytokine IL-31 leads to the activation and phosphorylation of JAK1/JAK2 tyrosine kinases which in turn leads to the phosphorylation of STAT3 (pSTAT3). The activated STAT then translocates into the nucleus and directly regulates the transcription of cytokine-sensitive genes. In these studies, Balb/c mice were dosed with an ointment formulation of compound (I). Ointment vehicle (Table 9) or compound (I) formulated in the ointment vehicle was applied topically to shaved skin (25 μl/cm^2) 30 minutes before the intradermal injection (50 μl/1×1 cm2 site) of IL-31 (1 μg/ml) at a 1×1 cm^2 shaved area of skin on the back between the ears. One hour after IL-31, skin biopsies were collected. The tissue samples were flash frozen and analyzed for pSTAT3 by ELISA and compound concentration. Compound (I) inhibited pSTAT3 production by 80% and the skin tissue concentration of compound (I) was 62 μM.

[2] = system: IL-12 induced STAT4 phosphorylation in human CD3+ T cells; test: Assay 12: inhibition of IL-12-induced STAT4 phosphorylation in human CD3+ T cells; format: cell-based; conditions: T-cell, read-out: pIC50 for inhibition of IL-12 induced STAT4 phosphorylation (converted)
Method: Assay 12: Inhibition of IL-12-Induced STAT4 Phosphorylation in Human CD3+ T Cells
This cellular potency assay for JAK inhibition was carried out by measuring interleukin-12 (IL-12, R&D Systems) induced STAT4 phosphorylation in human CD3^+ T cells. The CD3 antibody (Becton Dickinson (BD) Biosciences) was conjugated to R-Phycoerythrin (R-PE). The pSTAT4 antibody (pTyr641, BD Biosciences) was conjugated with Alexa Fluor 647.
Human peripheral blood mononuclear cells were cultured at 37° C. in a 5% CO2 humidified incubator in RPMI medium (Life Technologies) supplemented with 10% FBS (Life Technologies), 100 U/mL penicillin, 100 μg/mL streptomycin (Life Technologies), 2 mM GlutaMAX (Life Technologies), plate bound anti CD3 (5 μg/mL, UCHT1, BD Biosciences) and soluble anti-CD28 (1 μg/mL, CD28.2, BD Biosciences) for 3 days. Cells were then resuspended in RPMI medium (Life Technologies) supplemented with 10% FBS (Life Technologies), 100 U/mL penicillin, 100 μg/mL streptomycin (Life Technologies), 2 mM GlutaMAX (Life Technologies) and 10 ng/mL interleukin-2 (IL-2, R&D Systems) for an additional 3 days. […] For dose-response analysis, mean fluorescence intensity values were plotted vs. compound concentrations, and IC50 values were determined from a 4-parameter robust fit model with the Prism software.

T1 sequence (P29597 whole entry): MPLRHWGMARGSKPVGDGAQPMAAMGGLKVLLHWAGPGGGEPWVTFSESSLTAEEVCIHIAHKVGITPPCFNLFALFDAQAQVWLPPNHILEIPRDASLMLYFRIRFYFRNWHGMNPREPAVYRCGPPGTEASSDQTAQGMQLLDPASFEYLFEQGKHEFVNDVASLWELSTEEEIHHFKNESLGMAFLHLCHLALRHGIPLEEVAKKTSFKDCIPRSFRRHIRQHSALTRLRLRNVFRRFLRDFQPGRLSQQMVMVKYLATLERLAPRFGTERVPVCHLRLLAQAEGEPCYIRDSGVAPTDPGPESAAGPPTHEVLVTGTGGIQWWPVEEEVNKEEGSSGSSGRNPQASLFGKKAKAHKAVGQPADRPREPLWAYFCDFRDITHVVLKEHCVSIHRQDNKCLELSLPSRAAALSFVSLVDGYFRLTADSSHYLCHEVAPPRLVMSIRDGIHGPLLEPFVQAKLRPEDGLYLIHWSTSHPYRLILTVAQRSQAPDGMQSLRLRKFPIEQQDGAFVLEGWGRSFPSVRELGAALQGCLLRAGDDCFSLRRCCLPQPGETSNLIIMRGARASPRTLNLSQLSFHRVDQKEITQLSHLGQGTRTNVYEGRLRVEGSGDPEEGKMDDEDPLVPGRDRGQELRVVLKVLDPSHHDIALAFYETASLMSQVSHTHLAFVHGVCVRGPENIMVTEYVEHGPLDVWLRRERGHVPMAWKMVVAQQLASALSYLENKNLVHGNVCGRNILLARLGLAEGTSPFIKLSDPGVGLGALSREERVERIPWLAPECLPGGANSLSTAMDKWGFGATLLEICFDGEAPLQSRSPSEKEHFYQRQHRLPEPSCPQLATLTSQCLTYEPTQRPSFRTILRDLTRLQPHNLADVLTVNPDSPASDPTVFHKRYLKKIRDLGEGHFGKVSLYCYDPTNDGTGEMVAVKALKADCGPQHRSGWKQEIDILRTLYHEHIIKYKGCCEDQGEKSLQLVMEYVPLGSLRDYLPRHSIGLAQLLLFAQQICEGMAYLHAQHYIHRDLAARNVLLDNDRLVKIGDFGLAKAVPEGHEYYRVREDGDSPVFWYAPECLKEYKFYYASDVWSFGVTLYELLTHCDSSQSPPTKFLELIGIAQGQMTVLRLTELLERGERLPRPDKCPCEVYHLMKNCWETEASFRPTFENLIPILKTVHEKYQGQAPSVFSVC

CCS(=O)(=O)N1[C@@H]2CCC[C@H]1C[C@H](N(C)c1nc(CO)c(F)c(Nc3cc(C)[nH]n3)n1)C2 [Compound (I), (2-(((1R,3s,5S)-9-(ethylsulfonyl)-9-azabicyclo[3.3.1]nonan-3-yl)(methyl)amino)-5-fluoro-6-((5-methyl-1H-pyrazol-3-yl)amino)pyrimidin-4-yl)methanol]
Ki (Tyk2): 0.126 nM | concentration at 1.5 h [1]: 62 µM | IC50 [2]: 63.1 nM
